Data published in article PMC5927452, “Gadoxetic acid–enhanced magnetic resonance imaging to predict paritaprevir-induced hyperbilirubinemia during treatment of hepatitis C” (PLoS ONE, 2018).

What was measured:
[1] = Plasma paritaprevir concentration 7 d after start of OBV/PTV/r treatment (LC-MS/MS); assay type: in vivo, human; details: OBV/PTV/r 25/150/100 mg orally once daily; for Log10 Ctrough: fasting steady-state plasma trough, day 7, LC-MS/MS, mean ± SD; for AUC (AUC0-6 h): plasma, day 7, 0-6 h after dosing with breakfast, trapezoidal rule
Procedure: This was a single-center, exploratory, prospective study. The study was approved by both the ethical review board of Juntendo University Faculty of Medicine (Jundai-Irin No-2016135) and the Ethics Committee for Human Genome/Gene Analysis Research at Kanazawa University Graduate School of Medical Sciences (No. 2016–004, serial No. 432) and was carried out in accordance with the 1964 Declaration of Helsinki and its later amendments. The study was also registered with UMIN clinical trials as UMIN000022587. Written informed consent was obtained from all patients before enrollment. The study enrolled adult patients with HCV genotype 1b chronic hepatitis or compensated liver cirrhosis using OBV/PTV/r (VIEKIRAX®; AbbVie, Inc., North Chicago, Illinois, USA) at Juntendo University Nerima Hospital. Analysis of resistance-associated variations of the NS5A Y93H substitutions in the baseline sequence was performed in a commercial laboratory (SRL, Inc., Tokyo, Japan), and the patients with the mutant type of NS5A Y93H were excluded. Patients with renal dysfunction (estimated glomerular filtration rate < 40 ml/min/1.73 m^2) were excluded. A precaution in OBV/PTV/r treatment is coadministration of statin medications. Patients taking simvastatin and atorvastatin were excluded; no other patients were taking any other type of statin. Consequently, this study involved 27 consecutive Japanese patients (8 males and 19 females), with ages ranging from 30 to 83 years, treated between June 2016 and July 2017. Twenty patients with chronic hepatitis and seven patients with liver cirrhosis were included. All patients were treated with OBV/PTV/r, at a dose of 25/150/100 mg, administered orally once daily.
Fasting steady-state plasma trough concentrations (Ctrough) of paritaprevir were determined from blood samples obtained 7 d after the start of treatment. The patients were given the same breakfast of 338 kcal, with 15% of calories from protein, 60% from fat, and 25% from carbohydrates. After the meal, the patients took the drugs orally. Paritaprevir concentrations at 2, 4, and 6 h after dosing were determined. Blood samples were centrifuged within 30 min at 1,500 rpm for 10 min at 4°C, and plasma concentrations of paritaprevir were determined using liquid chromatography–tandem mass spectrometry, as described. The area under the plasma concentration curve from 0 to 6 h (AUC0–6 h) of paritaprevir after dosing was calculated using the trapezoidal rule.

[2] = regimen of paritaprevir/ritonavir, ombitasvir, and dasabuvir with or without ribavirin; mainly indirect bilirubin, without elevations in liver enzymes; cited from earlier work
Procedure: The regimen of ombitasvir, paritaprevir, and ritonavir (OBV/PTV/r) without or with ribavirin has been available in Japan since 2015 and 2016, respectively. Ritonavir is included for its booster effect on paritaprevir by cytochrome P450 3A inhibitor. Paritaprevir, a nonstructural (NS)3/4A protease inhibitor, is mainly eliminated via hepatobiliary excretion. It is carried into the hepatocyte by hepatic transporters including organic anion–transporting polypeptides (OATP)1B1 and OATP1B3, located at the sinusoidal membranes of hepatocytes. These transporters also carry unconjugated bili ...

[3] = patients with hyperbilirubinemia (N = 7)
[4] = patients without hyperbilirubinemia (N = 20)

Log10 Ctrough [1, 3]: 2.768 ± 0.747 ng/ml | AUC (AUC0-6 h) [1, 3]: 37224 ± 21015 ng·h/mL | Log10 Ctrough [1, 4]: 2.169 ± 0.484 ng/ml | AUC (AUC0-6 h) [1, 4]: 31441 ± 21727 ng·h/mL
SMILES: Cc1cnc(C(=O)N[C@H]2CCCCC/C=C\[C@@H]3C[C@@]3(C(=O)NS(=O)(=O)C3CC3)NC(=O)[C@@H]3C[C@@H](Oc4nc5ccccc5c5ccccc45)CN3C2=O)cn1 [paritaprevir]
patients with elevation in total bilirubin (≥ 2.25 mg/dl) [2]: 23%
